Measured values: US9260429B2, “Pyrido[3,4-B]indoles and methods of use” (Medivation Technologies, Inc., priority 2008, dated 2016)

What was measured:
[1] = molecular target: T1, human recombinant histamine H2 receptor (Homo sapiens, UniProt P25021); experiment: Histamine H2 radioligand binding ([125I]Aminopotentidine); settings: 1 μM; inhibition of specific [125I]Aminopotentidine binding; read-out: Binding data (Percentage Inhibition) Histamine Binding (1 μM) H2
T1 construct: expressed in transfected cells; host or cells: CHO-K1 cells
T1 sequence (P25021 whole entry): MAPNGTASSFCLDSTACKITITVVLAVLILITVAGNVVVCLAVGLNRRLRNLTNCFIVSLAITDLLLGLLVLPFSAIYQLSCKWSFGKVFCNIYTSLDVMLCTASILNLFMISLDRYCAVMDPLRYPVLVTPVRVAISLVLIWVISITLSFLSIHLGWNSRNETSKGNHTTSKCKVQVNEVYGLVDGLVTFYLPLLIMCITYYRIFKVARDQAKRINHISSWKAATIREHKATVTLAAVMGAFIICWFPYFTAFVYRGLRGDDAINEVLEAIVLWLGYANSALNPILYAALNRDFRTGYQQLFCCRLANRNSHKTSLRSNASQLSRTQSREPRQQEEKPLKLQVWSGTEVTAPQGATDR
Procedure: To evaluate in radioligand binding assays the activity of compounds of the invention, human recombinant histamine H2 receptor expressed in Chinese hamster ovary (CHO) K1 cells (Ruat, M., Proc. Natl. Acad. Sci. USA. 87(5):1658, 1990) in a 50 mM Phosphate buffer, pH 7.4 was used. Compounds of the invention were incubated with 0.1 nM [^125I]Aminopotentidine for 120 minutes at 25° C. Non-specific binding was estimated in the presence of 3 μM Tiotidine. Receptor proteins were filtered and washed, the filters were then counted to determine [^125I]Aminopotentidine specifically bound. Compounds were screened at 1 μM or lower, using 1% DMSO as vehicle. Biochemical assay results are presented as the percent inhibition of specific binding in Table 3.

[2] = molecular target: T2, human recombinant dopamine D2L receptor (Homo sapiens, UniProt P14416); experiment: Dopamine D2L radioligand binding ([3H]Spiperone); settings: 2 h, 1 μM ligand conc.; read-out: Percent Inhibition of ligand binding Dopamine (1 μM ligand conc.) D2L
T2 construct: expressed in transfected cells; host or cells: CHO cells
T2 sequence (P14416 whole entry): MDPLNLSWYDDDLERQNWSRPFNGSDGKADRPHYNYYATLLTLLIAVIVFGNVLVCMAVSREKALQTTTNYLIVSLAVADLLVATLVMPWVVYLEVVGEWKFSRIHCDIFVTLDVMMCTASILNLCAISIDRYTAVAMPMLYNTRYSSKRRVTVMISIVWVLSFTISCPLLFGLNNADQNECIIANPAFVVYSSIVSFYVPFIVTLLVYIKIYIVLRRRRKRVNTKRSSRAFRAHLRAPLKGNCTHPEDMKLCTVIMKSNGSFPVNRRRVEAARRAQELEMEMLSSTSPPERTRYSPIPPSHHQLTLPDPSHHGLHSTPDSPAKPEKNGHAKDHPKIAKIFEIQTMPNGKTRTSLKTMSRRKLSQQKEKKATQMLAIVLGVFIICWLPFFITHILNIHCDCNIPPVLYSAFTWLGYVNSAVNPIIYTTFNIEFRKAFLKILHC
Procedure: To evaluate in radioligand binding assays the activity of compounds of the invention, human recombinant dopamine D2L receptor expressed in Chinese hamster ovary (CHO) cells (Grandy, D. K. et al. Proc. Natl. Acad. Sci. USA. 86:9762, 1989; Hayes, G. et al., Mol. Endocrinol. 6:920, 1992) in a modified Tris-HCl buffer (50 mM Tris-HCl, pH 7.4, 1.4 mM Ascorbic Acid, 0.001% BSA, 150 mM NaCl) was used. Compounds of the invention were incubated with 0.16 nM [^3H]Spiperone for 120 minutes at 25° C. Non-specific binding was estimated in the presence of […] Haloperidol. Receptor proteins were filtered and washed, the filters were then counted to determine [^3H]Spiperone specifically bound. Compounds were screened at 1 μM or lower, using 1% DMSO as vehicle. Biochemical assay results are presented as the percent inhibition of specific binding in Table 4.

[3] = molecular target: T3, human recombinant serotonin (5-Hydroxytryptamine) 5-HT6 receptor (Homo sapiens, UniProt P50406); experiment: Serotonin 5-HT6 radioligand binding ([3H]LSD); settings: 2 h; read-out: Percent Inhibition of ligand binding Serotonin (1 μM ligand concentration) 5-HT6
T3 construct: expressed in transfected cells; host or cells: human HeLa cells
T3 sequence (P50406 whole entry): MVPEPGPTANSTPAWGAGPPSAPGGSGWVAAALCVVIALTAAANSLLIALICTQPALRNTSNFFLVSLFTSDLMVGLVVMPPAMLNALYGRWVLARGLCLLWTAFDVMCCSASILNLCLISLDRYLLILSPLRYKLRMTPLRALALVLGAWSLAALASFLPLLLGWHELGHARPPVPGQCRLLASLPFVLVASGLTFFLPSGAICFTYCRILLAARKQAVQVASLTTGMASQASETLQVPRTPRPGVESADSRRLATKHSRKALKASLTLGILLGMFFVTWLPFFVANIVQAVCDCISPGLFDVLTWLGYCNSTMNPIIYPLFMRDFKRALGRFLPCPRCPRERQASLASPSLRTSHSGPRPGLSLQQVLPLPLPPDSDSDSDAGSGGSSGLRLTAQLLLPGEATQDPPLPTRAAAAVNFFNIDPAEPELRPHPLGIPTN
Procedure: To evaluate in radioligand binding assays the activity of compounds of the invention, human recombinant serotonin (5-Hydroxytryptamine) 5-HT6 receptor expressed in human HeLa cells (Monsma, F. J. Jr. et al., Mol. Pharmacol. 43:320, 1993) in a modified Tris-HCl buffer (50 mM Tris-HCl, pH 7.4, 150 mM NaCl, 2 mM Ascorbic Acid, 0.001% BSA) was used. Compounds of the invention were incubated with 1.5 nM [3H]Lysergic acid diethylamide (LSD) for 120 minutes at 37° C. Non-specific binding was estimated in the presence of […] Serotonin (5-HT). Receptor proteins were filtered and washed, the filters were then counted to determine [3H]LSD specifically bound. Compounds were screened at 1 μM or lower, using 1% DMSO as vehicle. Biochemical assay results are presented as the percent inhibition of specific binding in Table 5.

[4] = molecular target: T4, human recombinant serotonin (5-Hydroxytryptamine) 5-HT2C receptor (Homo sapiens, UniProt P28335); experiment: Serotonin 5-HT2C radioligand binding ([3H]Mesulergine); settings: 1 h; read-out: Percent Inhibition of ligand binding Serotonin (1 μM ligand concentration) 5-HT2C
T4 construct: expressed in transfected cells; host or cells: CHO-K1 cells
T4 sequence (P28335 33-458): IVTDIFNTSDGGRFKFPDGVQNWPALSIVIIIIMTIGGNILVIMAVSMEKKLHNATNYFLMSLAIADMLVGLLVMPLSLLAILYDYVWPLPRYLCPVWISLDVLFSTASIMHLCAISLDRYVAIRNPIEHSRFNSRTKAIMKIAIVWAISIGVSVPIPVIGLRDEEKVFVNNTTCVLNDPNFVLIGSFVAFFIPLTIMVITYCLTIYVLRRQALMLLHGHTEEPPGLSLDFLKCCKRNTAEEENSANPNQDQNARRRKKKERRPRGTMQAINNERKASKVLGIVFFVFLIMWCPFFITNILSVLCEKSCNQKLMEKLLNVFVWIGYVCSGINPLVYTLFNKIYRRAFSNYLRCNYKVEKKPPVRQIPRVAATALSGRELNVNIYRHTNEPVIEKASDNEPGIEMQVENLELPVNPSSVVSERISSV
Procedure: Compounds of the invention were incubated with 1 nM [^3H]Mesulergine for 60 minutes at 25° C. Non-specific binding was estimated in the presence of 1 μM Mianserin. Receptor proteins were filtered and washed, the filters were then counted to determine [^3H]Mesulergine specifically bound. […] Biochemical assay results are presented as the percent inhibition of specific binding in Table 5.

[5] = molecular target: T5, human recombinant serotonin (5-Hydroxytryptamine) 5-HT7 receptor (Homo sapiens, UniProt P34969); experiment: Serotonin 5-HT7 radioligand binding ([3H]LSD); settings: 2 h; read-out: Percent Inhibition of ligand binding Serotonin (1 μM ligand concentration) 5-HT7
T5 construct: expressed in transfected cells; host or cells: CHO cells
T5 sequence (P34969 whole entry): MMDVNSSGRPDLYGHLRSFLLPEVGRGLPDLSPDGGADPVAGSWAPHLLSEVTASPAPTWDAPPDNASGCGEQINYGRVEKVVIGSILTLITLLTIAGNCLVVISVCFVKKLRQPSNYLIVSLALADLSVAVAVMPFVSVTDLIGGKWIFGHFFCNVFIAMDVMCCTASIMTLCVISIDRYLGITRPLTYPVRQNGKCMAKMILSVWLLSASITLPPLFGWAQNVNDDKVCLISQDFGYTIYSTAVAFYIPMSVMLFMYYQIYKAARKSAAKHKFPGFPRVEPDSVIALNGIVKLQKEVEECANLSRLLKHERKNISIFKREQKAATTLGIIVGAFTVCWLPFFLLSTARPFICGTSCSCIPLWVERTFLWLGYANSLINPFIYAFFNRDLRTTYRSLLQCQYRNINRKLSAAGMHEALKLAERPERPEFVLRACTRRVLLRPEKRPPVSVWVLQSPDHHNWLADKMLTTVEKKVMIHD
Procedure: To evaluate in radioligand binding assays the activity of compounds of the invention, human recombinant serotonin (5-Hydroxytryptamine) 5-HT7 receptor expressed in Chinese hamster ovary (CHO) cells (Roth, B. L. et al., J. Pharmacol. Exp. Ther. 268:1403, 1994; Shen, Y. et al., J. Biol. Chem. 268:18200, 1993) in a modified Tris-HCl buffer (50 mM Tris-HCl, pH 7.4, 10 mM MgCl2, 0.5 mM EDTA) was used. Compounds of invention were incubated with 5.5 nM [^3H]Lysergic acid diethylamide (LSD) for 2 hours at 25° C. Non-specific binding was estimated in the presence of […] Serotonin (5-HT). Receptor proteins were filtered and washed, the filters were then counted to determine [^3H]LSD specifically bound. Compounds were screened at 1 μM or lower, using 1% DMSO as vehicle. Biochemical assay results are presented as the percent inhibition of specific binding in Table 5.

[6] = molecular target: T6, human recombinant serotonin (5-Hydroxytryptamine) 5-HT2A receptor (Homo sapiens, UniProt P28223); experiment: Serotonin 5-HT2A radioligand binding ([3H]Ketanserin); settings: 1 h; read-out: Percent Inhibition of ligand binding Serotonin (1 μM ligand concentration) 5-HT2A
T6 construct: expressed in transfected cells; host or cells: CHO-K1 cells
T6 sequence (P28223 whole entry): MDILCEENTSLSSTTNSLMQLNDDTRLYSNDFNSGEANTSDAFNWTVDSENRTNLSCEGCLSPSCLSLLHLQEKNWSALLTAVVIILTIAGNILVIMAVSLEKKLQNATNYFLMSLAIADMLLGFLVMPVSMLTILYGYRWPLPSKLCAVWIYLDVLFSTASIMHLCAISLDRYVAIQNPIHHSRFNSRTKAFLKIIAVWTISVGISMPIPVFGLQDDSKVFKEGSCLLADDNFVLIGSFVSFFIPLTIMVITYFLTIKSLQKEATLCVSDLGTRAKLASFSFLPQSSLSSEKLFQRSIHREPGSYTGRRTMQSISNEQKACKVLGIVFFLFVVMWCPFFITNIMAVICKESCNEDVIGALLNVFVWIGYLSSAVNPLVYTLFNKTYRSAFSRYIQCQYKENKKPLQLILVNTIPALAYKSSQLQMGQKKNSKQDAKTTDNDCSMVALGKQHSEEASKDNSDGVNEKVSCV
Procedure: To evaluate in radioligand binding assays the activity of compounds of the invention, human recombinant serotonin (5-Hydroxytryptamine) 5-HT2A receptor expressed in Chinese hamster ovary (CHO-K1) cells (Bonhaus, D. W. et al. Br. J. Pharmacol. 115:622, 1995; Saucier, C. and Albert, P. R., J. Neurochem. 68:1998, 1997) in a 50 mM Tris-HCl buffer, pH 7.4, was used. Compounds of the invention were incubated with 0.5 nM [^3H]Ketanserin for 60 minutes at 25° C. Non-specific binding was estimated in the presence of 1 μM Mianserin. Receptor proteins were filtered and washed, the filters were then counted to determine [^3H]Ketanserin specifically bound. Compounds were screened at 1 μM or lower, using 1% DMSO as vehicle. Biochemical assay results are presented as the percent inhibition of specific binding in Table 5.

[7] = molecular target: T7, human recombinant histamine H1 receptor (Homo sapiens, UniProt P35367); experiment: Histamine H1 radioligand binding ([3H]Pyrilamine); settings: 1 μM; read-out: Binding data (Percentage Inhibition) Histamine Binding (1 μM) H1
T7 construct: expressed in transfected cells; host or cells: CHO cells
T7 sequence (P35367 whole entry): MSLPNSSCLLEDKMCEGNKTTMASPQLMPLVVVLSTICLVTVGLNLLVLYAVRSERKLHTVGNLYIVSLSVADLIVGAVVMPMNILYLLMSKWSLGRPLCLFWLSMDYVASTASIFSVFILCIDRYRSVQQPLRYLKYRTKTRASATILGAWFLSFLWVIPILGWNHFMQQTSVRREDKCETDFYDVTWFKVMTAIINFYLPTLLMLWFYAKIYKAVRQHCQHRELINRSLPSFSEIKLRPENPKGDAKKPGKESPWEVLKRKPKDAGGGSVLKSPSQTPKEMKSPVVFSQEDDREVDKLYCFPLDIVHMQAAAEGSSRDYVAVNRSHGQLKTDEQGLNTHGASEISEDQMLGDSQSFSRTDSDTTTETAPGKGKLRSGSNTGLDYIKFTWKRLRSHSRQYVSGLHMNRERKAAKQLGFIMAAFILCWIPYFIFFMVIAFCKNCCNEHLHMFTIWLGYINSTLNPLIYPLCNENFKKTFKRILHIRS
Procedure: To evaluate in radioligand binding assays the activity of compounds of the invention, human recombinant histamine H1 receptor expressed in Chinese hamster ovary (CHO) cells (De Backer, M. D. et al., Biochem. Biophys. Res. Comm. 197(3):1601, 1993) in a modified Tris-HCl buffer (50 mM Tris-HCl, pH 7.4, 2 mM MgCl2, 100 mM NaCl, 250 mM Sucrose) was used. Compounds of the invention were incubated with 1.2 nM [^3H]Pyrilamine for 180 minutes at 25° C. Non-specific binding was estimated in the presence of 1 μM pyrilamine. Receptor proteins were filtered and washed, the filters were then counted to determine [^3H]Pyrilamine specifically bound. […] Biochemical assay results are presented as the percent inhibition of specific binding in Table 3.

CCC1c2c(c3cc(C)ccc3n2/C=C(\C)c2ccc(Cl)cc2Cl)CCN1C (centres unmarked) [Compound 170]
inhibition at 1 µM [1]: 60%
inhibition at 1 µM [2]: 1%
inhibition at 1 µM [3]: 36%
inhibition at 1 µM [4]: 98%
inhibition at 1 µM [5]: 74%
inhibition at 1 µM [6]: 96%
inhibition at 1 µM [7]: 27%

CCC1c2c(c3cc(Cl)ccc3n2/C=C(\C)c2ccc(Cl)c(Cl)c2)CCN1C (centres unmarked) [Compound 116, 6-chloro-9-(2-(3,4-dichlorophenyl)prop-1-enyl)-1-ethyl-2-methyl-2,3,4,9-tetrahydro-1H-pyrido[3,4-b]indole]
inhibition at 1 µM [1]: 50%
inhibition at 1 µM [2]: 0%
inhibition at 1 µM [3]: 38%
inhibition at 1 µM [4]: 85%
inhibition at 1 µM [5]: 51%
inhibition at 1 µM [6]: 83%
inhibition at 1 µM [7]: 8%

Cc1ccc2c(c1)c1c(n2C(=O)Cc2ccc(Cl)cc2)CN(C)CC1 [Compound 173]
inhibition at 1 µM [1]: 49%
inhibition at 1 µM [2]: 22%
inhibition at 1 µM [3]: 48%
inhibition at 1 µM [4]: 90%
inhibition at 1 µM [5]: 81%
inhibition at 1 µM [6]: 95%
inhibition at 1 µM [7]: 12%

C/C(=C\n1c2c(c3cc(Cl)ccc31)CCN(C)C2C)c1ccc(F)c(F)c1 (centres unmarked) [Compound 111, 6-chloro-9-(2-(3,4-difluorophenyl)prop-1-enyl)-1,2-dimethyl-2,3,4,9-tetrahydro-1H-pyrido[3,4-b]indole]
inhibition at 1 µM [1]: 61%
inhibition at 1 µM [2]: 5%
inhibition at 1 µM [3]: 88%
inhibition at 1 µM [4]: 93%
inhibition at 1 µM [5]: 78%
inhibition at 1 µM [6]: 79%
inhibition at 1 µM [7]: 60%

Cc1ccc2c(c1)c1c(n2C#Cc2ccc(Cl)cc2)CN(C)CC1 [Compound 130, 9-((4-chlorophenyl)ethynyl)-2,6-dimethyl-2,3,4,9-tetrahydro-1H-pyrido[3,4-b]indole]
inhibition at 1 µM [1]: 51%
inhibition at 1 µM [2]: -3%
inhibition at 1 µM [3]: 7%
inhibition at 1 µM [4]: 95%
inhibition at 1 µM [5]: 22%
inhibition at 1 µM [6]: 91%
inhibition at 1 µM [7]: 5%

C/C(=C/n1c2c(c3cc(C)ccc31)CCN(C)C2C)c1ccc(F)c(F)c1 (centres unmarked) [Compound 175, 9-(2-(3,4-difluorophenyl)prop-1-enyl)-1,2,6-trimethyl-2,3,4,9-tetrahydro-1H-pyrido[3,4-b]indole]
inhibition at 1 µM [1]: 60%
inhibition at 1 µM [2]: 0%
inhibition at 1 µM [3]: 77%
inhibition at 1 µM [4]: 97%
inhibition at 1 µM [5]: 82%
inhibition at 1 µM [6]: 86%
inhibition at 1 µM [7]: 25%

CCC1c2c(c3cc(C)ccc3n2/C=C(\C)c2ccc(F)c(F)c2)CCN1C (centres unmarked) [Compound 176, (E)-9-(2-(3,4-difluorophenyl)prop-1-enyl)-1-ethyl-2,6-dimethyl-2,3,4,9-tetrahydro-1H-pyrido[3,4-b]indole]
inhibition at 1 µM [1]: 26%
inhibition at 1 µM [2]: -2%
inhibition at 1 µM [3]: 26%
inhibition at 1 µM [4]: 94%
inhibition at 1 µM [5]: 53%
inhibition at 1 µM [6]: 81%
inhibition at 1 µM [7]: 17%

C/C(=C\n1c2c(c3cc(Cl)ccc31)CCN(C)C2)c1ccc(F)c(F)c1 [Compound 110, 6-chloro-9-(2-(3,4-difluorophenyl)prop-1-enyl)-2-methyl-2,3,4,9-tetrahydro-1H-pyrido[3,4-b]indole]
inhibition at 1 µM [1]: 64%
inhibition at 1 µM [2]: 10%
inhibition at 1 µM [3]: 73%
inhibition at 1 µM [4]: 97%
inhibition at 1 µM [5]: 87%
inhibition at 1 µM [6]: 93%
inhibition at 1 µM [7]: 25%

Cc1ccc2c(c1)c1c(n2C#Cc2ccc(Cl)cc2)C(C)N(C)CC1 (centres unmarked) [Compound 172, 9-((4-chlorophenyl)ethynyl)-1,2,6-trimethyl-2,3,4,9-tetrahydro-1H-pyrido[3,4-b]indole]
inhibition at 1 µM [1]: 45%
inhibition at 1 µM [2]: 1%
inhibition at 1 µM [3]: 10%
inhibition at 1 µM [4]: 100%
inhibition at 1 µM [5]: 1%
inhibition at 1 µM [6]: 96%
inhibition at 1 µM [7]: 11%

C/C(=C\n1c2c(c3cc(C)ccc31)CCN(C)C2)c1ccc(Cl)c(Cl)c1 [Compound 113, 9-(2-(3,4-dichlorophenyl)prop-1-enyl)-2,6-dimethyl-2,3,4,9-tetrahydro-1H-pyrido[3,4-b]indole]
inhibition at 1 µM [1]: 81%
inhibition at 1 µM [2]: 9%
inhibition at 1 µM [3]: 49%
inhibition at 1 µM [4]: 91%
inhibition at 1 µM [5]: 84%
inhibition at 1 µM [6]: 99%
inhibition at 1 µM [7]: 26%

C/C(=C/n1c2c(c3cc(C)ccc31)CCN(C)C2C)c1ccc(Cl)cc1Cl (centres unmarked) [Compound 169]
inhibition at 1 µM [1]: 50%
inhibition at 1 µM [2]: 5%
inhibition at 1 µM [3]: 24%
inhibition at 1 µM [4]: 91%
inhibition at 1 µM [5]: 78%
inhibition at 1 µM [6]: 80%
inhibition at 1 µM [7]: 20%
